Legend:
CXCL10 mRNA = assay: Up-regulation of CXCL10 mRNA in vivo after oral administration (RT-qPCR); set-up: species or system C57BL/6 mice; conditions: mice
Method: (§1) Production of IFN-α and Up-Regulation of CXCL10 mRNA In Vivo
(§2) The potential of compounds to induce IFN-α production and CXCL10 mRNA up-regulation in vivo was evaluated after oral administration to C57BL/6 mice. The quantity of IFN-α in systemic circulation was followed over time, using a murine pan-IFN-α ELISA (PBL InterferonSource, ref. 42120). This ELISA recognizes all murine IFN-α subtypes. […] CXCL10 mRNA expression levels were followed by RT-qPCR.
For each compound and dose tested, 3 female C57BL/6J mice, from 6-10 weeks of age, 20-22 g of body weight were tested. Animals were given compound 1 as a single oral dose of 15.5 mg/kg as a 1.55 mg/mL solution in 20% aqueous hydroxypropyl β-cyclodextrin vehicle using a feeding tube. 0.5, 1, 2, 4 and 7 hours after dosing, systemic blood was drawn from the tail vein into K-EDTA containing tubes. […] At each time point, the median and standard deviation over the 3 animals was calculated to evaluate the potency of the compound.
Blood was also drawn from the tail vein into micronic tubes containing 500 μl of PAXgene solution (PAXgene blood RNA tubes from PreAnalytix). […] The ΔΔCt method (for relative quantification) was used to evaluate regulation of CXCL10 expression by the compound compared to the vehicle control. At each time point, the median and standard deviation over the 3 animals was calculated to evaluate the potency of the compounds.

IFN-α = assay: Production of IFN-α in vivo after oral administration (murine pan-IFN-α ELISA); set-up: species or system C57BL/6 mice; conditions: mice
Method: as §1, §2
For each compound and dose tested, 3 female C57BL/6J mice, from 6-10 weeks of age, 20-22 g of body weight were tested. Animals were given compound 1 as a single oral dose of 15.5 mg/kg as a 1.55 mg/mL solution in 20% aqueous hydroxypropyl β-cyclodextrin vehicle using a feeding tube. 0.5, 1, 2, 4 and 7 hours after dosing, systemic blood was drawn from the tail vein into K-EDTA containing tubes. Plasma was separated from blood cells by centrifugation at 1500 g, 10 min, 4° C. and stored at −80° C. prior to ELISA analysis. At each time point, the median and standard deviation over the 3 animals was calculated to evaluate the potency of the compound.

CCCC[C@@H](CCOC(=O)C(C)C)Nc1nc(NC(=O)C(C)C)ncc1OC [Compound 1]
observed: upregulation of CXCL10 (CXCL10 mRNA; blood, single oral dose of 15.5 mg/kg (FIG. 2B)) | upregulation of CXCL10 (CXCL10 mRNA; liver, single oral dose of 15.5 mg/kg (FIG. 2A)) | Induction of endogenous interferon (IFN-α; liver, single oral dose of 15.5 mg/kg (FIG. 1A)) | Induction of endogenous interferon (IFN-α; plasma, single oral dose of 15.5 mg/kg (FIG. 1B))

— US9790191B2, “Substituted acylaminopyrimidines as inducers of alpha interferon production” (JANSSEN SCIENCES IRELAND UC, priority 2012, dated 2017)
